# US4746729A, “Cartilage-derived leukocyte elastase-inhibitor” (priority 1986, dated 1988)
# Tested on: PMN-Elastase
# Experiment: PMN-Elastase inhibition assay with chromogenic substrate
# Format: biochemical, human
# Conditions: substrate methoxysuccinyl-Ala-Ala-Pro-Val-p-nitroanilide, 405 nm absorption, semiquantitative
# Description: PMN-Elastase was isolated and purified from human neutrophile as depicted in Recent Advances In Connective Tissue Research, 1986, Bukhauser Verlag, Basel, Boston, Stuttgart, C. Arsenis, E. S.-M. A. Thomar, and K. E. Kuettner, pages 63-68, incorporated herein by reference. It has essentially no cathepsin-G activity. The enzyme was tested against its natural substrates, such as type IV collagen, insoluble amorphous elastin, and against the specific synthetic substrate Methoxysuccinyl-L-Alanyl-L-Alanyl-L-Prolyl-L-Valyl-p-nitro-anilide, from which a DMSO stock solution was made. See The Journal of Bioloqical Chemistry, Vol. 254, pp. 4027-4032, 1979, K. Nakajima, J. C. Powers, B. M. Ashe, and M. Zimmerman, incorporated herein by reference. Aliquots were diluted with assay buffer for each measurement.
# 30 microliters (2.5-15 micrograms protein/ml) of PMN-Elastase was poured into a 96 well-plate, and 70 microliters of sample were added and incubated for 30 minutes at 30° C. After addition of 100 microliters substrate solution (methoxy-succinyl-L-Alanyl-L-Alanyl-L-Prolyl-L-Valyl-p-nitroanilide) in DMSO, dilution to 3 mM was effected with a buffer solution of 20 mM Tris and 500 mM NaCl at pH 7.3 (final DMSO concentration 10%). […] By varying the enzyme quantities, semiquantitative relationships were obtained.
substance,measurement,value
serum albumin: 68 KD blood contaminant in the high molecular weight fraction of the cartilage extract,PMN-Elastase inhibitory activity,inhibit the PMN-Elastase to a certain extent
